Data set [1] can be described thus: Pharmacokinetics (PK) test of immediate release formulation (capsule formulation) in human. The data set is classed as in vivo. To be noted: healthy subjects, immediate release capsules, 0.1 to 340 mg. As to the method: The immediate release formulations (capsule formulations) containing 0.1 mg, 1 mg, 5 mg, 20 mg, and 80 mg of the compound A were used in combinations as needed so that the dose of compound A became 0.1 mg, 1 mg, 3 mg, 10 mg, 30 mg, 100 mg, 160 mg, 240 mg, and 340 mg.

Data set [2] is described as follows: Pharmacokinetics of compound A after conventional formulation (elimination half-life; absorption by deconvolution). Particulars: human, in vivo; read-out: elimination half-life (T1/2). The source says:
Taking into consideration the results of the clinical trial described above, the present inventors conducted intensive studies to design the formulation by paying attention to the control of a release rate of the drug from a formulation to the extent that the release is not affected by food intake or the like, rather than the addition of release control.
On the basis of blood concentration profiles (in a fasted state/after the intake of food) after administration of a conventional formulation (immediate release formulation), the absorption rate of the drug in a fed state was calculated by a deconvolution method to predict continuous absorption for about 4 hours.

Turning to `Nc1nc(CC(=O)Nc2ccc(CCNC[C@H](O)c3ccccc3)cc2)cs1` [Compound A, (R)-2-(2-aminothiazol-4-yl)-4′-[2-[(2-hydroxy-2-phenylethyl)amino]ethyl]acetic acid anilide], in data set [1], the “relation between Cmax and the increase in heart rate from the base line” value is recorded as “positive correlation”. Also, the half-life in data set [2] lay within 18 to 24 h.

Values taken from patent US8877214B2, “Pharmaceutical composition for modified release” (Astellas Pharma Inc., priority 2010, dated 2014).
